# Source: US20080242683A1, “Organic Compounds” (priority 2005, published 2008)
# Structures can show the parent of a compound that is named as a salt.
# Target: adenosine A2A receptor (Homo sapiens, UniProt P29274)
# Test: adenosine A2A receptor agonist assay (method of Murphree et al.)
# Format: binding
# Conditions: Mol Pharmacol 61, 455-462 (2002)
# Excerpt: Compounds of formula (I) and their pharmaceutically acceptable salts are useful as pharmaceuticals. In particular, they activate the adenosine A2A receptor, i.e., they act as A2A receptor agonists.
# adenosine A2A receptor, sequence (P29274 whole entry): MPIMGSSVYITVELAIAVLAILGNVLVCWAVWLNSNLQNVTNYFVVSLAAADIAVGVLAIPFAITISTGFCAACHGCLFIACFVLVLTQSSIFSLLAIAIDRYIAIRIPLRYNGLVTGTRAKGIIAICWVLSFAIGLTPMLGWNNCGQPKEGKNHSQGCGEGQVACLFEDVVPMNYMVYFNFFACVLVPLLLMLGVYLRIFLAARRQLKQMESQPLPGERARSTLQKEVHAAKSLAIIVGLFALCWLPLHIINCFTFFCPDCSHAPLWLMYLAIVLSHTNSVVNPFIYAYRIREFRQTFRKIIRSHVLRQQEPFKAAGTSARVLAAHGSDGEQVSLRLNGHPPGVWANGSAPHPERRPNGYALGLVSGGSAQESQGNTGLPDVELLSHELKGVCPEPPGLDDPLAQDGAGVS
row,Structure (SMILES),Ki [nM]
1,"O=C(N[C@@H]1CCN(C(=O)NC2CCN(C(=O)OCc3ccccc3)CC2)C1)N[C@@H]1CCN(c2nc(NCC(c3ccccc3)c3ccccc3)c3ncn([C@@H]4O[C@H](CO)[C@@H](O)[C@H]4O)c3n2)C1 [Example 24, 4-{[(R)-3-(3-{(R)-1-[9-((2R,3R,4S,5R)-3,4-Dihydroxy-5-hydroxymethyl-tetrahydro-furan-2-yl)-6-(2,2-diphenyl-ethylamino)-9H-purin-2-yl]-pyrrolidine-3-yl}-ureido)-pyrrolidine-1-carbonyl]-amino}-piperidine-1-carboxylic acid benzyl ester trifluoroacetate]",59
2,"CCc1cc([C@H]2O[C@@H](n3cnc4c(N[C@H](CO)Cc5ccccc5)nc(N5CC[C@@H](N6CCCC6)C5)nc43)[C@H](O)[C@@H]2O)on1 [Example 65, (2R,3R,4S,5S)-2-[(R)-2-[1,3′]Bipyrrolidinyl-1′-yl-6-((S)-1-hydroxymethyl-2-phenyl-ethylamino)-purin-9-yl]-5-(3-ethyl-isoxazol-5-yl)-tetrahydro-furan-3,4-diol]",2
3,"OC[C@H]1O[C@@H](n2cnc3c(NCC(c4ccccc4)c4ccccc4)nc(N4CC[C@H](c5ccc(F)cc5)C4)nc32)[C@H](O)[C@@H]1O [Example 2, (2R,3R,4S,5R)-2-{6-(2,2-diphenyl-ethylamino)-2-[(R)-3-(4-fluoro-phenyl)-pyrrolidin-1-yl]-purin-9-yl}-5-hydroxymethyl-tetrahydro-furan-3,4-diol trifluoroacetate]",610
4,"O=C(NC1CCN(c2ccccn2)CC1)N[C@@H]1CCN(c2nc(NCC(c3ccccc3)c3ccccc3)c3ncn([C@@H]4O[C@H](CO)[C@@H](O)[C@H]4O)c3n2)C1 [Example 9, 1-{(R)-1-[9-((2R,3R,4S,5R)-3,4-Dihydroxy-5-hydroxymethyl-tetrahydro-furan-2-yl)-6-(2,2-diphenyl-ethylamino)-9H-purin-2-yl]-pyrrolidin-3-yl}-3-(3,4,5,6-tetrahydro-2H-[1,2′]bipyridinyl-4-yl)-urea trifluoroacetate]",160
5,"CCn1nnc([C@H]2O[C@@H](n3cnc4c(NCCc5ccc(S(N)(=O)=O)cc5)nc(N5CC[C@@H](NC(=O)N[C@@H]6CCNC6)C5)nc43)[C@H](O)[C@@H]2O)n1 [Example 108, 4-(2-{9-[(2R,3R,4S,5R)-5-(2-Ethyl-2H-tetrazol-5-yl)-3,4-dihydroxy-tetrahydro-furan-2-yl]-2-[(R)-3-((R)-3-pyrrolidin-3-ylureido)-pyrrolidin-1-yl]-9H-purin-6-ylamino}-ethyl)-benzenesulfonamide trifluoroacetate]",5
6,"CN(C)[C@@H]1CCN(c2nc(NCC(c3ccccc3)c3ccccc3)c3ncn([C@@H]4O[C@H](CO)[C@@H](O)[C@H]4O)c3n2)C1 [Example 22, (2R,3R,4S,5R)-2-[2-((R)-3-dimethylamino-pyrrolidin-1-yl)-6-(2,2-diphenyl-ethylamino)-purin-9-yl]-5-hydroxymethyl-tetrahydro-furan-3,4-diol trifluoroacetate]",0.5
7,"O=C(N[C@@H]1CCNC1)N[C@@H]1CCN(c2nc(NCC(c3ccccc3)c3ccccc3)c3ncn([C@@H]4O[C@H](CO)[C@@H](O)[C@H]4O)c3n2)C1 [Example 11, 1-{(R)-1-[9-((2R,3R,4S,5R)-3,4-Dihydroxy-5-hydroxymethyl-tetrahydro-furan-2-yl)-6-(2,2-diphenyl-ethylamino)-9H-purin-2-yl]-pyrrolidin-3-yl}-3-(R)-pyrrolidin-3-yl-urea trifluoroacetate]",12
8,"CCn1nnc([C@H]2O[C@@H](n3cnc4c(NCC(c5ccccc5)c5ccccc5)nc(N5CC[C@@H](NC(=NCc6ccccn6)NC#N)C5)nc43)[C@H](O)[C@@H]2O)n1 [Example 122, N—((R)-1-{6-(2,2-Diphenyl-ethylamino)-9-[(2R,3R,4S,5R)-5-(2-ethyl-2H-tetrazol-5-yl)-3,4-dihydroxy-tetrahydro-furan-2-yl]-9H-purin-2-yl}-pyrrolidin-3-yl)-N′-cyano-N″-pyridin-2-ylmethyl-guanidine]",4
9,"CCn1nnc(C2OC(n3cnc4c(NCC(c5ccc(O)cc5)c5ccc(O)cc5)nc(N5CCC(NC(=O)c6ccc(N7CCOCC7)nc6)C5)nc43)C(O)C2O)n1 [Example 77, N—((R)-1-{6-[2,2-bis-(4-Hydroxy-phenyl)-ethylamino]-g-[(2R,3R,4S,5R)-5-(2-ethyl-2H-tetrazol-5-yl)-3,4-dihydroxy-tetrahydro-furan-2-yl]-9H-purin-2-yl}-pyrrolidin-3-yl)-6-morpholin-4-yl-nicotinamide trifluoroacetate]",6
10,"N[C@@H]1CCN(c2nc(NCC(c3ccccc3)c3ccccc3)c3ncn([C@@H]4O[C@H](CO)[C@@H](O)[C@H]4O)c3n2)C1 [Example 7, (2R,3R,4S,5R)-2-[2-((R)-3-Amino-pyrrolidin-1-yl)-6-(2,2-diphenyl-ethylamino)-purin-9-yl]-5-hydroxymethyl-tetrahydro-furan-3,4-diol trifluoroacetate]",190
11,"OC[C@H]1O[C@@H](n2cnc3c(NCC(c4ccccc4)c4ccccc4)nc(N4CC[C@@H](O)C4)nc32)[C@H](O)[C@@H]1O [Example 13, (2R,3R,4S,5R)-2-[6-(2,2-diphenyl-ethylamino)-2-((R)-3-hydroxy-pyrrolidin-1-yl)-purin-9-yl]-5-hydroxymethyl-tetrahydro-furan-3,4-diol]",54
